In US7148338B2, “Nucleic acids encoding dipeptidyl peptidases” (The University of Sydney, priority 1999, dated 2006):
Values belong to the compound of their own block, whether it stands above or below them. Non-standard residues stand in square brackets, D forms with d. Residues, ends and D or L forms follow the SMILES beside them. *: point of attachment. Sta = CC(C)C[C@H](N)[C@@H](O)CC(=O)O; pNA = O=[N+]([O-])c1ccc(N*)cc1; Isovaleryl = CC(C)CC(=O)*; Cbz = O=C(OCc1ccccc1)*

Tests used:
[1] = target: T1, DPP8 (Homo sapiens, UniProt Q6V1X1); test: Substrate hydrolysis by extracts of DPP8-transfected COS-7 cells; format: biochemical; design: the full length DPP8 cDNA of 3.1 kb was cloned into the Xba I site of pcDNA3.1A/V5/His expression vector; expressed in transfected cells; host or cells: COS-7 (monkey kidney fibroblast) cells; clarified sonicated cell extract; conditions: above the levels of untransfected COS-7 cells; data not shown
T1 sequence (Q6V1X1 17-898 limits assumed): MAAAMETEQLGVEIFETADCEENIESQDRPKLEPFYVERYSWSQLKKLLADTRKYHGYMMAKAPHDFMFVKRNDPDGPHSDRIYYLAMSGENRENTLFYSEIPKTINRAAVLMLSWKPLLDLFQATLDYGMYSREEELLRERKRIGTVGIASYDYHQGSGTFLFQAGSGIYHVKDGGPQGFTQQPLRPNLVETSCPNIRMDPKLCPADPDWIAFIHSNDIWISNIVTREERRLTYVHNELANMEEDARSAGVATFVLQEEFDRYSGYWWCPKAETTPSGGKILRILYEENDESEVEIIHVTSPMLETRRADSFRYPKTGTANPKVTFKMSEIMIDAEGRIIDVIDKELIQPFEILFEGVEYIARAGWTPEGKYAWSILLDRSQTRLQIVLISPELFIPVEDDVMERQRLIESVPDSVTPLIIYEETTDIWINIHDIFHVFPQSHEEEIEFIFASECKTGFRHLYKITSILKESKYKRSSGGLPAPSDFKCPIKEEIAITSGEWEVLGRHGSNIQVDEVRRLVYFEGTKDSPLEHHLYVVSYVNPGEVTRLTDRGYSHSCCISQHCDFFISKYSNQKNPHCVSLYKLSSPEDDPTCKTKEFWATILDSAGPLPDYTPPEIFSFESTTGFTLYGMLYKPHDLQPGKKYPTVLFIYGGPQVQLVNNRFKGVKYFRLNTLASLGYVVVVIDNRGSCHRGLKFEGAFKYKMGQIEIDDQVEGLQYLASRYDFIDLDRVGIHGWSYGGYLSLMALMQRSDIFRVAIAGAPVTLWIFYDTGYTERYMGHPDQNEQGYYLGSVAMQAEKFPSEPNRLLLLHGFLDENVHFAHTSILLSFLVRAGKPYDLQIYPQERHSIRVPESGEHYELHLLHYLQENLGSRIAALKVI
Method: (§1) Monkey kidney fibroblast (COS-7) cells (American Type Culture Collection, CRL-1651) were grown and transfected as described previously. For making stable cell lines, Geneticin (G418; Gibco-BRL) was added to the medium, beginning 24 h after transfection. COS cell extracts were prepared by sonication followed by differential centrifugation and neither boiled nor reduced before SDS/PAGE (10% gel) and transfer to nitrocellulose, as described previously. The presence of DPP8 fused with the V5 epitope was detected using an anti-V5 mAb (Invitrogen). COS cell monolayers were fixed in cold ethanol before staining with anti-V5 mAb. Some monolayers were fixed in 4% paraformaldehyde and permeabilized with 0.1% Triton X-100 [35], then double-stained with wheat germ agglutinin to label Golgi apparatus and with goat anti-mouse IgG to label DPP8, conjugated to Alexa Fluor 488 and Alexa Fluor 594, respectively (Molecular Probes, Eugene, Oreg., USA). Flow cytometry and confocal scanning microscopy using a Leica TCS-NT confocal microscope have been described previously.
(§2) Enzyme assays were performed as described previously. Either clarified cell extract from 1×10^4 sonicated COS-7 cells or purified protein derived from 1×10^5 cells was incubated with substrate in 70 μL phosphate buffer, pH 7.4, for 30 min at 37° C., except where otherwise indicated. The specific DPPIV substrates, Gly-Pro-toluenesulfonate, H-Gly-Pro-p-nitroanilide (NA)/HCl (Sigma, St Louis, Mo., USA) and Gly-Pro-7-amino-4-trifluromethylcoumarin (Calbiochem, San Diego, Calif., USA) were tested. Other substrates tested were H-Ala-Pro-pNA/HCl, H-Arg-Pro-pNA acetate salt, H-Lys-Ala-pNA.2HCl, H-Asp-Pro-pNA, H-Ala-Ala-pNA/HCl, H-Ala-Ala-Pro-pNA/HCl, H-Ala-Ala-Phe-pNA, succinyl-Ala-Pro-pNA, H-Ala-Phe-Pro-pNA and Z-Ala-Pro-p-NA from Bachem (Switzerland). H-Ala-Pro-4-methoxyβNA/HCl, Z-Lys-Pro-4-methoxyβNAformate salt, H-Lys-Pro-4-methoxyβNA/HCl, Z-Ala-Pro-4-methoxyβNA, H-Gly-Pro-βNA and H-His-Ser-4-methoxyβNAacetate salt (Bachem) were tested for their ability to stain unfixed transfected cells. All inhibitors were (see Table 2) incubated with each purified enzyme in phosphate buffer, pH 7.4, for 15 min before the addition of substrate. After the addition of 1 mM H-Ala-Pro-pNA substrate for purified DPP8 and 1 mM H-Gly-Pro-pNA substrate for purified DPPIV, samples were incubated for 60 min at 37° C. All enzyme assays were performed in triplicate.
DPPIV expressed in COS-7 cells with or without the V5/His tag were positive controls, and negative controls included vector-only transfected COS07 cells. […] The pH optimum of DPP8 enzyme activity was 7.4 (FIG. 5A), similar to the pH 7.8 optimum DPPIV enzyme activity. […]

[2] = target: T2, DPP8/V5/His (Homo sapiens, UniProt Q6V1X1); test: Substrate hydrolysis by purified recombinant DPP8/V5/His; format: biochemical
T2 construct: the full length DPP8 cDNA of 3.1 kb was cloned into the Xba I site of pcDNA3.1A/V5/His expression vector; His tag (C); made in house; host or cells: COS-7 cells, stably transfected
T2 sequence (Q6V1X1 17-898 limits assumed): as above
Method: (§3) Cells (1×10^7) expressing each protein were sonicated in native buffer (50 mM sodium phosphate, 300 mM NaCl), then treated with 700 U DNAse for 20 min at room temperature. DPPIV is expressed at the cell surface, so 1% Triton X-100 was used to solubilize DPPIV/V5/His. Insoluble material was removed by centrifugation. The supernatant was incubated with 1 mL Talon® Metal Affinity Resin (Clontech) following the manufacturer's instructions for a batch/gravity flow procedure. The resin was washed with 50 mM sodium phosphate, containing 300 mM NaCl and 5 mM imidazole, and proteins were eluted using the same buffer containing 150 mM imidazole. Enzyme activity was used to monitor eluted fractions.
as §2

[3] = target: T3, DPPIV/V5/His (Homo sapiens, UniProt P27487); test: Substrate hydrolysis by purified recombinant DPPIV/V5/His; format: biochemical
T3 construct: His tag; made in house; host or cells: transfected COS-7 cells; solubilised with 1% Triton X-100
T3 sequence (P27487 whole entry): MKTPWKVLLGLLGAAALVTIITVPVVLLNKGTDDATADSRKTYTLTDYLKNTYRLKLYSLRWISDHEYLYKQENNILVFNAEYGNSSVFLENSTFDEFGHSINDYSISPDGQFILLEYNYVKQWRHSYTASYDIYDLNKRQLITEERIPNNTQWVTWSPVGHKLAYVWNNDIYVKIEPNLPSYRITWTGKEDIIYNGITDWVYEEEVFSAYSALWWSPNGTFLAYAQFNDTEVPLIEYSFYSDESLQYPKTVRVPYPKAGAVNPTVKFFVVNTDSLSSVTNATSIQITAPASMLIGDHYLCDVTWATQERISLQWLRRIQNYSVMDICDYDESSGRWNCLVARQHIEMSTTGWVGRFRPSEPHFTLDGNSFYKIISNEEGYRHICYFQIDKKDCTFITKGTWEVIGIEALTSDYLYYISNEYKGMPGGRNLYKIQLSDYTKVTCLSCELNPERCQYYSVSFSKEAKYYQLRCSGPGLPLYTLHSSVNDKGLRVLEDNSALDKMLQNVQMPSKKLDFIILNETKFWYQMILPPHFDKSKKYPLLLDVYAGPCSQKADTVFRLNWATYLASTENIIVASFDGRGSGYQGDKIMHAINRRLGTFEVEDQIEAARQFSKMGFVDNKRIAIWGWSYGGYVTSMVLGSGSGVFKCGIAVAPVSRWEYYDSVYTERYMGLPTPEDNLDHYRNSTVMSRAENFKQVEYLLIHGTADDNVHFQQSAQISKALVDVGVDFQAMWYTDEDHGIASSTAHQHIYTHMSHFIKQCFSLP
Method: as §3, §2

[4] = target: T4, DPPIV (Homo sapiens, UniProt P27487); test: Inhibition of peptidase activity of purified DPPIV, substrate H-Gly-Pro-pNA; format: biochemical; design: His tag; made in house; host or cells: transfected COS-7 cells; solubilised with 1% Triton X-100; conditions: 1 mM H-Gly-Pro-pNA, pH 7.4
T4 sequence (P27487 whole entry): as above
Method: as §3, §2

[5] = target: T1, DPP8; test: Inhibition of peptidase activity of purified DPP8, substrate H-Ala-Pro-pNA; format: biochemical; design: the full length DPP8 cDNA of 3.1 kb was cloned into the Xba I site of pcDNA3.1A/V5/His expression vector; His tag (C); made in house; host or cells: COS-7 cells, stably transfected; conditions: for Residual activity (% of control): 1 mM H-Ala-Pro-pNA, pH 7.4
Method: as §3, §2

[6] = target: T4, DPPIV; conditions: reference [46]; cited from earlier work
[7] = target: T1, DPP8; test: Enzyme kinetics (Km, Vmax) of purified DPP8; format: biochemical; design: the full length DPP8 cDNA of 3.1 kb was cloned into the Xba I site of pcDNA3.1A/V5/His expression vector; His tag (C); made in house; host or cells: COS-7 cells, stably transfected; conditions: for Km: Michaelis-Menten fit
Method: (§4) FIG. 7. DPP8 enzyme activity. (A) pH-dependence of DPP8 enzyme activity. (B) DPP8 and DPPIV enzyme kinetics. Means +/− SD of absorbance change per minute, multiplied by 1000 are shown. Curve fitting assumed Michaelis-Menten kinetics.
as §3, §2

[8] = target: T4, DPPIV; test: Enzyme kinetics (Km, Vmax) of purified DPPIV; format: biochemical; design: His tag; made in house; host or cells: transfected COS-7 cells; solubilised with 1% Triton X-100; conditions: for Km: Michaelis-Menten fit
Method: as §4, §3, §2

[9] = system: DPP8-transfected COS cells and CHO cells; test: Cytochemical staining of unfixed transfected cell monolayers by substrates; format: cell-based; conditions: data not shown
Method: as §1
Enzyme assays were performed as described previously. Either clarified cell extract from 1×10^4 sonicated COS-7 cells or purified protein derived from 1×10^5 cells was incubated with substrate in 70 μL phosphate buffer, pH 7.4, for 30 min at 37° C., except where otherwise indicated. […]

Compound: O=S(=O)([O-])[O-].[Zn+2] [Zinc sulphate]
- Inhibition of DPPIV enzyme activity (in words) [6]: completely inhibits

Compound: O[C@H](CS)[C@H](O)CS (racemic) [Dithiothreitol]
- Residual activity (% of control) ([4]; inhibitor 2 mM): 109 % of control
- Residual activity (% of control) ([5]; inhibitor 2 mM): 108 % of control

Compound: Aprotinin
- Residual activity (% of control) ([4]; inhibitor 4 μg mL^−1): 81 % of control
- Residual activity (% of control) ([5]; inhibitor 4 μg mL^−1): 47 % of control

Compound: COc1cc(NC(=O)[C@@H]2CCCN2C(=O)[C@H](C)N)cc2ccccc12.Cl [Ala-Pro-4MβNA/HCl, H-Ala-Pro-4-methoxyβNA/HCl]
- Staining of DPP8-transfected cells by substrate [9]: stained

Compound: C[C@H](N)C(=O)N[C@@H](C)C(=O)N[C@@H](Cc1ccccc1)C(=O)Nc1ccc([N+](=O)[O-])cc1 [H-Ala-Ala-Phe-pNA] (H-Ala-Ala-Phe-pNA)
- Hydrolysis (cleavage) of substrate by purified recombinant DPP8 [2]: neither

Compound: NC(=O)CI [Iodoacetamide]
- Residual activity (% of control) ([4]; inhibitor 2 mM): 115 % of control
- Residual activity (% of control) ([5]; inhibitor 2 mM): 100 % of control

Compound: Cl.N=C(N)c1ccccc1 [Benzamidine/HCl]
- Residual activity (% of control) ([4]; inhibitor 10 mM): 89 % of control
- Residual activity (% of control) ([5]; inhibitor 10 mM): 82 % of control

Compound: CC(=O)N[C@@H](CC(C)C)C(=O)N[C@@H](CC(C)C)C(=O)N[C@H](C=O)CCCNC(=N)N [Leupeptin]
- Residual activity (% of control) ([4]; inhibitor 0.1 mM): 104 % of control
- Residual activity (% of control) ([5]; inhibitor 0.1 mM): 93 % of control

Compound: C[C@H](N)C(=O)N[C@@H](C)C(=O)N1CCC[C@H]1C(=O)Nc1ccc([N+](=O)[O-])cc1.Cl [H-Ala-Ala-Pro-pNA] (H-Ala-Ala-Pro-pNA)
- Hydrolysis of substrate by extracts of DPP8-transfected COS-7 cells [1]: exhibited tripeptidyl peptidase activity

Results, then the compound that gave them:

- Hydrolysis of substrate by extracts of DPP8-transfected COS-7 cells [1]: hydrolyzed
- Hydrolysis (cleavage) of substrate by purified recombinant DPP8 [2]: hydrolyzed
- Hydrolysis of substrate by purified recombinant DPPIV [3]: hydrolyzed
Compound: NC(N)=NCCC[C@H](N)C(=O)N1CCC[C@H]1C(=O)Nc1ccc([N+](=O)[O-])cc1 [H-Arg-Pro-pNA] (H-Arg-Pro-pNA)

- Residual activity (% of control) ([4]; inhibitor 10 mM): 106 % of control
- Residual activity (% of control) ([5]; inhibitor 10 mM): 99 % of control
Compound: Gly-Gly-Gly (GGG) [peptide]

- Residual activity (% of control) ([4]; inhibitor 10 mM): 67 % of control
- Residual activity (% of control) ([5]; inhibitor 10 mM): 51 % of control
- Inhibition of DPP8 enzyme activity (in words) ([5]; purified DPP8): probably competitively inhibited
Compound: Ala-Pro-Gly (APG) [peptide that mimics DPP8 substrates]

- Vmax [7]: 12.4 ± 0.9 ΔA min^−1 × 1000
- Km [7]: 991 ± 171 µM
- Hydrolysis of substrate by extracts of DPP8-transfected COS-7 cells [1]: hydrolyzed
- Vmax [8]: 9.6 ± 1.0 ΔA min^−1 × 1000
- Km [8]: 374 ± 134 µM
- Hydrolysis (cleavage) of substrate by purified recombinant DPP8 [2]: hydrolyzed
- Hydrolysis of substrate by purified recombinant DPPIV [3]: hydrolyzed
Compound: C[C@H](N)C(=O)N1CCC[C@H]1C(=O)Nc1ccc([N+](=O)[O-])cc1 [H-Ala-Pro-pNA] (H-Ala-Pro-pNA)

- Hydrolysis (cleavage) of substrate by purified recombinant DPP8 [2]: neither
Compound: C[C@H](N)C(=O)N[C@@H](Cc1ccccc1)C(=O)N1CCC[C@H]1C(=O)Nc1ccc([N+](=O)[O-])cc1 [H-Ala-Phe-Pro-pNA] (H-Ala-Phe-Pro-pNA)

- Hydrolysis of substrate by extracts of DPP8-transfected COS-7 cells [1]: endopeptidase activity
Compound: C[C@H](NC(=O)OCc1ccccc1)C(=O)N1CCC[C@H]1C(=O)Nc1ccc([N+](=O)[O-])cc1 [Z-Ala-Pro-pNA] (Cbz-Ala-Pro-pNA)

- Vmax [7]: 3.5 ± 0.14 ΔA min^−1 × 1000
- Km [7]: 467 ± 64 µM
- Vmax [8]: 7.2 ± 0.49 ΔA min^−1 × 1000
- Km [8]: 347 ± 88 µM
- Hydrolysis (cleavage) of substrate by purified recombinant DPP8 [2]: hydrolyzed
- Hydrolysis of substrate by purified recombinant DPPIV [3]: hydrolyzed
Compound: NCC(=O)N1CCC[C@H]1C(=O)Nc1ccc([N+](=O)[O-])cc1 [H-Gly-Pro-pNA, H-Gly-Pro-p-nitroanilide] (H-Gly-Pro-pNA)

- Residual activity (% of control) ([4]; inhibitor 2 μg mL^−1): 110 % of control
- Residual activity (% of control) ([5]; inhibitor 2 μg mL^−1): 107 % of control
Compound: CC(C)CC(=O)N[C@H](C(=O)N[C@H](C(=O)N[C@@H](CC(C)C)[C@@H](O)CC(=O)N[C@@H](C)C(=O)N[C@@H](CC(C)C)[C@@H](O)CC(=O)O)C(C)C)C(C)C [Pepstatin] (Isovaleryl-VV[Sta]A[Sta]-OH)
